Results taken from patent US20250320496A1, “MODULATION OF ABCB11 GENE TRANSCRIPTION USING ANTISENSE OLIGONUCLEOTIDES TARGETING REGULATORY RNAS” (CAMP4 Therapeutics Corporation, priority 2022, published 2025).
Strand notation (5' to 3'): a small letter for the sugar, then the base; units joined by * are phosphorothioate-linked, units joined directly phosphodiester-linked; [ ] holds rarer units or linkages, { } end groups; capitals alone tell only the bases. e = 2'-O-(2-methoxyethyl) (MOE); l = locked nucleic acid (LNA); [5mC] = 5-methylcytosine; d = 2'-deoxy (DNA)

Tested on: human ABCB11 mRNA
Assay: ASO treatment of primary human hepatocytes (PHH), ABCB11 mRNA by RT-qPCR normalized to B2M
Type: cell-based
Conditions: primary human hepatocytes; for ABCB11 mRNA FC (5 μM ASO vs. UNT): normalized to untreated PHHs (UNT); for ABCB11 FC mRNA (5 μM ASO vs. untreated): 5 μM ASO with PO-modifications, normalized to untreated hepatocytes
Procedure: Primary human hepatocytes (PHH) were thawed using Lonza Human Cryopreserved Hepatocyte Thawing Medium and plated in 96-well collagen-coated plates (5.5-6.0×10^4 cells per well). Four hours later, the media was replaced with sterile-filtered QualGro™ Hepatocyte Culture Medium (BioIVT) containing antibiotic supplement, 0.3 mg/ml Matrigel® matrix (Corning®), and ASO at the desired concentration (e.g., 1.25 μM, 2.5 μM, 5 μM, or 10 μM). After 72 hrs., cells were harvested by aspirating media, washing once with phosphate-buffered saline (PBS), and lysed with 150 μl of Buffer RLT lysis buffer (Qiagen®). Plates were frozen at-80° C. during cell lysis. After thawing, total RNA was isolated using the Qiagen RNEasy kit as instructed by manufacturer. cDNA (random-primed) was synthesized from 10 μl of RNA using the LifeTech High Capacity cDNA Reverse Transcription kit. 2 μl of cDNA was used for reverse transcription-quantitative PCR (RT-qPCR) analyses using standard Taqman” reagents from Applied Biosystems™ to measure ABCB11 and CYP7A1 gene expression. Gene expression data was normalized to the housekeeper gene, beta-2-microglobulin (B2M).
To assess the ability of ASOs targeting ABCB11 regRNAs to modulate the expression of human ABCB11, 195 ASOs targeting the human ABCB11 regRNAs were synthesized. These initial ASOs were screened in PHHs at 5 μM to determine their efficacy in increasing human ABCB11 mRNA using quantitative PCR. This initial screen identified 10 ASOs that induced increased expression of ABCB11 mRNA by more than 1.5-fold (as compared to untreated PHHs).

| Substance | ABCB11 mRNA FC (5 μM ASO vs. UNT) [fold change] | ABCB11 FC mRNA (5 μM ASO vs. untreated) [fold change] |
| --- | --- | --- |
| CO-7057 (antisense eA*e[5mC]*eT*eG*e[5mC]*eT*e[5mC]*eA*e[5mC]*e[5mC]*e[5mC]*e[5mC]*e[5mC]*e[5mC]*eT*e[5mC]*eA*e[5mC]*e[5mC]*eT) | 1.145 | – |
| CO-4023 (antisense e[5mC]*eA*e[5mC]*eA*eA*e[5mC]*eA*eT*eT*eG*eT*eA*eT*eA*e[5mC]*eA*eA*eT*eA*e[5mC]) | 1.092 | – |
| CO-7028 (antisense eA*e[5mC]*e[5mC]*eG*eA*e[5mC]*eA*eG*eT*eG*eA*eG*e[5mC]*eT*eT*eA*eT*e[5mC]*eT*eG) | 1.49 | – |
| CO-4024 (antisense eA*e[5mC]*eT*eT*eA*e[5mC]*eA*eG*eG*eA*eT*eG*e[5mC]*eA*eT*eT*eA*eA*eT*eG) | 0.997 | – |
| CO-3999 (antisense eG*eG*e[5mC]*eA*eA*e[5mC]*e[5mC]*eT*e[5mC]*eG*eT*e[5mC]*e[5mC]*e[5mC]*e[5mC]*eT*e[5mC]*eA*e[5mC]*eT) | 1.076 | – |
| CO-4061 (antisense eA*eT*eT*e[5mC]*eA*eT*eT*eG*e[5mC]*eT*eG*eA*eA*eG*eG*e[5mC]*eT*eG*eG*eA) | 1.233 | – |
| CO-7166: derivative ASO with additional chemical modifications based on parent ASO CO-4535 (antisense eG*eT*eT*eA*eT*eT*eA*eA*eT*eT*e[5mC]*eT*eA*e[5mC]*eA*eG*eA*eG*eG*eG) | 1.517 | – |
| CO-4485 (antisense eG*eT*e[5mC]*eA*eA*eG*eA*eT*e[5mC]*e[5mC]*e[5mC]*e[5mC]*eG*eA*eA*eG*eT*eT*eG*eA) | 1.194 | – |
| CO-4517: parent ASO targeting a human ABCB11 regRNA, chemically modified to CO-7141 etc. (antisense e[5mC]*eT*eT*eA*eG*eG*eA*eG*eG*eA*eT*eT*eA*eT*eT*eT*eA*eA*e[5mC]*e[5mC]) | 0.914 | – |
| CO-7043 (antisense eT*eT*eG*e[5mC]*eT*eT*eG*eG*eT*e[5mC]*eA*eA*eG*eA*eG*eG*eA*eA*eA*eG) | 1.1 | – |
| CO-12745 (antisense eG*eT*eG*eA*eGeGe[5mC]*eA*eT*e[5mC]*eA*eG*eG*eTeAeA*eG*eT*eT*e[5mC]) | – | 0.92 |
| CO-4058 (antisense eG*eA*eT*eT*e[5mC]*eA*e[5mC]*eA*eA*eG*eA*eA*eG*eG*eG*eA*eG*eA*eG*eG) | 1.134 | – |
| CO-7102 (eT*eA*eT*e[5mC]*eT*eG*eG*dA*dA*dA*dA*dT*dA*dA*dT*dG*d[5mC]*e[5mC]*eT*eT*eT*e[5mC]*eT*eA; antisense) | 1.068 | – |
| CO-7013 (antisense eA*eG*eT*eG*eA*eG*dG*d[5mC]*dA*dT*d[5mC]*dA*dG*dG*dT*dA*eA*eG*eT*eT*e[5mC]*e[5mC]) | 0.997 | – |
| CO-11239 (antisense eG*eT*eG*eGlA*eG*e[5mC]*eAeA*lA*e[5mC]*eTeA*eG*lG*e[5mC]eA*e[5mC]*eT*eG) | – | 1.53 |
| CO-11245 (antisense eG*eTeG*eGlA*eGe[5mC]*eAeA*lAe[5mC]*eTeA*eGlG*e[5mC]eA*e[5mC]eT*eG) | – | 1.59 |
| CO-11211 (antisense eG*eT*lG*eGlAeGl[5mC]*eA*lA*eA*l[5mC]*eT*lA*eGlGe[5mC]lA*e[5mC]*eT*eG) | – | 2.80 |
| CO-11222 (antisense eG*eT*lG*eG*eAlGe[5mC]*eA*lA*eA*e[5mC]*lT*eA*eGlGe[5mC]*eA*l[5mC]*eT*eG) | – | 1.79 |
| CO-7099 (eA*eT*e[5mC]*eT*eG*eG*eA*eA*eA*eA*eT*eA*eA*eT*eG*e[5mC]*e[5mC]*eT*eT*eT*e[5mC]*eT; antisense) | 0.882 | – |
